# Test results published in ChEMBL document CHEMBL1201861, “Genomics of Drug Sensitity in Cancer screening data, Wellcome Trust Sanger Institute”.
# Assays:
# H4 = assay: cells; type: functional, cell-based; settings: Homo sapiens
# Description: SANGER: Inhibition of human H4 cell growth in a cell viability assay.
# NCI-H2347 = assay: cells; type: functional, cell-based; settings: Homo sapiens;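 further: growth inhibition of the cell line, read out with a cell viability assay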
# Description: SANGER: Inhibition of human NCI-H2347 cell growth in a cell viability assay.
# CAL-72 = assay: cells; type: functional, cell-based; settings: Homo sapiens;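 further: cell viability assay measuring inhibition of proliferation in the CAL-72 cell line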
# Description: SANGER: Inhibition of human CAL-72 cell growth in a cell viability assay.
# SNU-423 = assay: cells; type: functional, cell-based; settings: Homo sapiens
# Description: SANGER: Inhibition of human SNU-423 cell growth in a cell viability assay.
# 769-P = assay: cells; type: functional, cell-based; settings: Homo sapiens
# Description: SANGER: Inhibition of human 769-P cell growth in a cell viability assay.
# COR-L23 = assay: cells; type: functional, cell-based; settings: Homo sapiens;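 further: cell viability assay measuring how strongly compounds suppress growth of COR-L23 cells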
# Description: SANGER: Inhibition of human COR-L23 cell growth in a cell viability assay.
# A2780 = assay: cells; type: functional, cell-based; settings: Homo sapiens;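 further: growth inhibition of A2780 cells, read out with a cell viability assay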
# Description: SANGER: Inhibition of human A2780 cell growth in a cell viability assay.
# TCC-SUP = assay: cells; type: functional, cell-based; settings: Homo sapiens;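 further: growth inhibition of TCC-SUP cells, read out with a cell viability assay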
# Description: SANGER: Inhibition of human TCCSUP cell growth in a cell viability assay.
# CAL-39 = assay: cells; type: functional, cell-based; settings: Homo sapiens;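 further: cell viability assay measuring growth inhibition of CAL-39 cells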
# Description: SANGER: Inhibition of human CAL-39 cell growth in a cell viability assay.
# SW948 = assay: cells; type: functional, cell-based; settings: Homo sapiens;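 further: growth inhibition of SW948 cells, read out with a cell viability assay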
# Description: SANGER: Inhibition of human SW948 cell growth in a cell viability assay.
# CAL-54 = assay: cells; type: functional, cell-based; settings: Homo sapiens;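 further: growth inhibition of CAL-54 cells, read out by a viability measurement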
# Description: SANGER: Inhibition of human CAL-54 cell growth in a cell viability assay.
# HT55 = assay: cells; type: functional, cell-based; settings: Homo sapiens;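 further: cell viability readout measuring growth inhibition of human HT55 cells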
# Description: SANGER: Inhibition of human HT55 cell growth in a cell viability assay.
# HCT-116 = assay: cells; type: functional, cell-based; settings: Homo sapiens
# Description: SANGER: Inhibition of human HCT-116 cell growth in a cell viability assay.
# OAW-28 = assay: cells; type: functional, cell-based; settings: Homo sapiens;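 further: growth inhibition of OAW-28 cells, read out with a cell viability assay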
# Description: SANGER: Inhibition of human OAW-28 cell growth in a cell viability assay.
# VMRC-RCZ = assay: cells; type: functional, cell-based; settings: Homo sapiens
# Description: SANGER: Inhibition of human VMRC-RCZ cell growth in a cell viability assay.
# CaR-1 = assay: cells; type: functional, cell-based; settings: Homo sapiens;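 further: growth inhibition of human CaR-1 cancer cells, read out with a cell viability assay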
# Description: SANGER: Inhibition of human CaR-1 cell growth in a cell viability assay.
# UMUC3 = assay: cells; type: functional, cell-based; settings: Homo sapiens;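 further: growth inhibition of human UM-UC-3 cells, read out with a cell viability assay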
# Description: SANGER: Inhibition of human UM-UC-3 cell growth in a cell viability assay.
# RPMI-2650 = assay: cells; type: functional, cell-based; settings: Homo sapiens
# Description: SANGER: Inhibition of human RPMI-2650 cell growth in a cell viability assay.
# NCI-H2228 = assay: cells; type: functional, cell-based; settings: Homo sapiens;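 further: growth inhibition of human NCI-H2228 cells, read out by a cell viability assay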
# Description: SANGER: Inhibition of human NCI-H2228 cell growth in a cell viability assay.
# MCF7 = assay: cells; type: functional, cell-based; settings: Homo sapiens;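 further: growth inhibition of human MCF7 cells, read out with a cell viability assay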
# Description: SANGER: Inhibition of human MCF7 cell growth in a cell viability assay.
# NCI-H358 = assay: cells; type: functional, cell-based; settings: Homo sapiens;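 further: growth inhibition of NCI-H358 human cells, read out with a cell viability assay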
# Description: SANGER: Inhibition of human NCI-H358 cell growth in a cell viability assay.
# SW1463 = assay: cells; type: functional, cell-based; settings: Homo sapiens;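 further: growth inhibition of SW1463 cells, determined with a cell viability assay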
# Description: SANGER: Inhibition of human SW1463 cell growth in a cell viability assay.
# A 172 = assay: cells; type: functional, cell-based; settings: Homo sapiens;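 further: growth inhibition of A172 cells, measured with a cell viability readout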
# Description: SANGER: Inhibition of human A172 cell growth in a cell viability assay.
# CWR22R = assay: cells; type: functional, cell-based; settings: Homo sapiens, 22Rv1;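 further: growth inhibition of 22Rv1 cells, read out with a cell viability assay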
# Description: SANGER: Inhibition of human 22RV1 cell growth in a cell viability assay.
# LU-99A = assay: cells; type: functional, cell-based; settings: Homo sapiens;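 further: growth inhibition of LU-99A cells, read out with a cell viability assay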
# Description: SANGER: Inhibition of human LU-99A cell growth in a cell viability assay.
# SW13 = assay: cells; type: functional, cell-based; settings: Homo sapiens;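 further: IC50 is inhibition of SW13 cell growth, read out with a cell viability assay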
# Description: SANGER: Inhibition of human SW13 cell growth in a cell viability assay.
# Ca-Ski = assay: cells; type: functional, cell-based; settings: Homo sapiens;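 further: cell viability assay measuring inhibition of Ca-Ski cell growth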
# Description: SANGER: Inhibition of human Ca-Ski cell growth in a cell viability assay.
# LCLC-97TM1 = assay: cells; type: functional, cell-based; settings: Homo sapiens;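 further: cell viability assay measuring growth inhibition of human LCLC-97TM1 cells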
# Description: SANGER: Inhibition of human LCLC-97TM1 cell growth in a cell viability assay.
# SKG-IIIa = assay: cells; type: functional, cell-based; settings: Homo sapiens;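 further: cell growth inhibition, read out with a cell viability assay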
# Description: SANGER: Inhibition of human SKG-IIIa cell growth in a cell viability assay.
# NCI-H441 = assay: cells; type: functional, cell-based; settings: Homo sapiens;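 further: growth inhibition of NCI-H441 cells, read out with a cell viability assay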
# Description: SANGER: Inhibition of human NCI-H441 cell growth in a cell viability assay.
# OVCAR-3 = assay: cells; type: functional, cell-based; settings: Homo sapiens;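 further: growth inhibition of human OVCAR-3 cells, determined by a cell viability assay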
# Description: SANGER: Inhibition of human OVCAR-3 cell growth in a cell viability assay.
# DBTRG-05MG = assay: cells; type: functional, cell-based; settings: Homo sapiens;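 further: cell viability assay measuring growth inhibition of human DBTRG-05MG cells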
# Description: SANGER: Inhibition of human DBTRG-05MG cell growth in a cell viability assay.
# HT-1080 = assay: cells; type: functional, cell-based; settings: Homo sapiens
# Description: SANGER: Inhibition of human HT-1080 cell growth in a cell viability assay.
# MIA PaCa-2 = assay: cells; type: functional, cell-based; settings: Homo sapiens;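 further: growth inhibition of MIA PaCa-2 cells, read out with a cell viability assay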
# Description: SANGER: Inhibition of human MIA-PaCa-2 cell growth in a cell viability assay.
# SW837 = assay: cells; type: functional, cell-based; settings: Homo sapiens;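 further: growth inhibition of SW837 cells, determined with a cell viability assay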
# Description: SANGER: Inhibition of human SW837 cell growth in a cell viability assay.
# SK-MES-1 = assay: cells; type: functional, cell-based; settings: Homo sapiens;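 further: growth inhibition of human SK-MES-1 cells, read out with a cell viability assay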
# Description: SANGER: Inhibition of human SK-MES-1 cell growth in a cell viability assay.
# NCI-H292 = assay: cells; type: functional, cell-based; settings: Homo sapiens;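 further: growth inhibition of NCI-H292 cells, read out with a cell viability assay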
# Description: SANGER: Inhibition of human NCI-H292 cell growth in a cell viability assay.
# A2058 = assay: cells; type: functional, cell-based; settings: Homo sapiens;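 further: reduction of A2058 cell growth, read out with a viability assay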
# Description: SANGER: Inhibition of human A2058 cell growth in a cell viability assay.
# HT-3 = assay: cells; type: functional, cell-based; settings: Homo sapiens;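 further: growth inhibition measured with a cell viability readout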
# Description: SANGER: Inhibition of human HT-3 cell growth in a cell viability assay.
# CAL-12T = assay: cells; type: functional, cell-based; settings: Homo sapiens;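 further: growth inhibition of human CAL-12T cells, read out with a cell viability assay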
# Description: SANGER: Inhibition of human CAL-12T cell growth in a cell viability assay.
# SW780 = assay: cells; type: functional, cell-based; settings: Homo sapiens;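 further: growth inhibition of the cells, read out with a cell viability assay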
# Description: SANGER: Inhibition of human SW780 cell growth in a cell viability assay.
# RT-112 = assay: cells; type: functional, cell-based; settings: Homo sapiens
# Description: SANGER: Inhibition of human RT-112 cell growth in a cell viability assay.
# TE-15 = assay: cells; type: functional, cell-based, Homo sapiens; settings: Homo sapiens, TE-15;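 further: cell viability readout of growth inhibition in TE-15 cells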
# Description: SANGER: Inhibition of human TE-15 cell growth in a cell viability assay.
# ST486 = assay: SANGER: Inhibition of human ST486 cell growth in a cell viability assay.; type: functional, cell-based; settings: Homo sapiens, ST486
# DG-75 = assay: cells; type: functional, cell-based, Homo sapiens; settings: Homo sapiens, DG-75;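 further: growth inhibition of DG-75 cells, read out with a cell viability assay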
# Description: SANGER: Inhibition of human DG-75 cell growth in a cell viability assay.
# MC-CAR = assay: cells; type: functional, cell-based, Homo sapiens; settings: Homo sapiens, MC-CAR;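 further: growth inhibition of the human MC-CAR cell line, read out by a cell viability assay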
# Description: SANGER: Inhibition of human MC-CAR cell growth in a cell viability assay.
# BL-41 = assay: cells; type: functional, cell-based; settings: Homo sapiens;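 further: growth inhibition of human BL-41 cells, read out with a cell viability assay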
# Description: SANGER: Inhibition of human BL-41 cell growth in a cell viability assay.
# NCI-H2141 = assay: cells; type: functional, cell-based, Homo sapiens; settings: Homo sapiens, NCI-H2141;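 further: growth inhibition of human NCI-H2141 cells, read out with a cell viability assay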
# Description: SANGER: Inhibition of human NCI-H2141 cell growth in a cell viability assay.
# TUR = assay: cells; type: functional, cell-based, Homo sapiens; settings: Homo sapiens, TUR;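 further: growth inhibition of human TUR cells, read out with a cell viability assay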
# Description: SANGER: Inhibition of human TUR cell growth in a cell viability assay.
# PF-382 = assay: cells; type: functional, cell-based, Homo sapiens; settings: Homo sapiens, PF-382
# Description: SANGER: Inhibition of human PF-382 cell growth in a cell viability assay.
# BL-70 = assay: SANGER: Inhibition of human BL-70 cell growth in a cell viability assay.; type: functional, cell-based; settings: Homo sapiens, BL-70
# EB2 = assay: cells; type: functional, cell-based, Homo sapiens; settings: Homo sapiens, EB2;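 further: growth inhibition of EB2 cells, read out with a cell viability assay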
# Description: SANGER: Inhibition of human EB2 cell growth in a cell viability assay.
# LB373-MEL-D = assay: cells; type: functional, cell-based, Homo sapiens; settings: Homo sapiens, LB373-MEL-D;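 further: growth inhibition of the cell line, read out in a cell viability assay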
# Description: SANGER: Inhibition of human LB373-MEL-D cell growth in a cell viability assay.
# NCI-H1522 = assay: cells; type: functional, cell-based, Homo sapiens; settings: Homo sapiens, NCI-H1522;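 further: growth inhibition of NCI-H1522 cells, read out with a cell viability assay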
# Description: SANGER: Inhibition of human NCI-H1522 cell growth in a cell viability assay.
# NCI-H1417 = assay: cells; type: functional, cell-based, Homo sapiens; settings: Homo sapiens, NCI-H1417;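 further: human NCI-H1417 cells, growth inhibition determined with a cell viability readout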
# Description: SANGER: Inhibition of human NCI-H1417 cell growth in a cell viability assay.
# LOUCY = assay: cells; type: functional, cell-based, Homo sapiens; settings: Homo sapiens, LOUCY;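 further: growth inhibition of human LOUCY cells, read out with a cell viability assay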
# Description: SANGER: Inhibition of human LOUCY cell growth in a cell viability assay.
# LC4-1 = assay: cells; type: functional, cell-based, Homo sapiens; settings: Homo sapiens, LC4-1;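 further: growth inhibition of LC4-1 cells, read out with a cell viability assay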
# Description: SANGER: Inhibition of human LC4-1 cell growth in a cell viability assay.
# DMS-79 = assay: cells; type: functional, cell-based, Homo sapiens; settings: Homo sapiens, DMS-79
# Description: SANGER: Inhibition of human DMS-79 cell growth in a cell viability assay.
# Hs-578T = assay: cells; type: functional, cell-based; settings: Homo sapiens
# Description: SANGER: Inhibition of human Hs-578-T cell growth in a cell viability assay.
structure (smiles),measurement,setting,value
O=C1NC(=O)c2c1c(-c1ccccc1Cl)cc1[nH]c3ccc(O)cc3c21,IC50,H4,953 nM
same,IC50,NCI-H2347,> 2000 nM
same,IC50,CAL-72,1820 nM
same,IC50,SNU-423,> 2000 nM
same,IC50,769-P,1020 nM
same,IC50,COR-L23,752 nM
same,IC50,A2780,> 2000 nM
same,IC50,TCC-SUP,> 2000 nM
same,IC50,CAL-39,> 2000 nM
same,IC50,SW948,> 2000 nM
same,IC50,CAL-54,> 2000 nM
same,IC50,HT55,> 2000 nM
same,IC50,HCT-116,> 2000 nM
same,IC50,OAW-28,> 2000 nM
same,IC50,VMRC-RCZ,> 2000 nM
same,IC50,CaR-1,> 2000 nM
same,IC50,UMUC3,> 2000 nM
same,IC50,RPMI-2650,> 2000 nM
same,IC50,NCI-H2228,> 2000 nM
same,IC50,MCF7,> 2000 nM
same,IC50,NCI-H358,> 2000 nM
same,IC50,SW1463,> 2000 nM
same,IC50,A 172,> 2000 nM
same,IC50,CWR22R,> 2000 nM
same,IC50,LU-99A,> 2000 nM
same,IC50,SW13,> 2000 nM
same,IC50,Ca-Ski,> 2000 nM
same,IC50,LCLC-97TM1,> 2000 nM
same,IC50,SKG-IIIa,> 2000 nM
same,IC50,NCI-H441,> 2000 nM
same,IC50,OVCAR-3,> 2000 nM
same,IC50,DBTRG-05MG,> 2000 nM
same,IC50,HT-1080,1200 nM
same,IC50,MIA PaCa-2,> 2000 nM
same,IC50,SW837,> 2000 nM
same,IC50,SK-MES-1,1720 nM
same,IC50,NCI-H292,454 nM
same,IC50,A2058,> 2000 nM
same,IC50,HT-3,> 2000 nM
same,IC50,CAL-12T,> 2000 nM
same,IC50,SW780,> 2000 nM
same,IC50,RT-112,> 2000 nM
CC(C)C[C@H](NC(=O)[C@H](Cc1ccccc1)NC(=O)c1cnccn1)B(O)O [BORTEZOMIB],IC50,TE-15,3.43 nM
same,IC50,ST486,> 20 nM
same,IC50,DG-75,18.6 nM
same,IC50,MC-CAR,> 20 nM
same,IC50,BL-41,1.25 nM
same,IC50,NCI-H2141,4.05 nM
same,IC50,TUR,> 20 nM
same,IC50,PF-382,1.47 nM
same,IC50,BL-70,2.12 nM
same,IC50,EB2,18.1 nM
same,IC50,LB373-MEL-D,0.7 nM
same,IC50,NCI-H1522,> 20 nM
same,IC50,NCI-H1417,5.51 nM
same,IC50,LOUCY,0.293 nM
same,IC50,LC4-1,1.79 nM
same,IC50,DMS-79,> 20 nM
C[C@@H](Oc1cc(-c2cnn(C3CCNCC3)c2)cnc1N)c1c(Cl)ccc(F)c1Cl [CRIZOTINIB],IC50,TE-15,> 2000 nM
same,IC50,ST486,> 2000 nM
same,IC50,DG-75,> 2000 nM
same,IC50,MC-CAR,> 2000 nM
same,IC50,BL-41,> 2000 nM
same,IC50,NCI-H2141,> 2000 nM
same,IC50,TUR,> 2000 nM
same,IC50,PF-382,> 2000 nM
same,IC50,BL-70,> 2000 nM
same,IC50,EB2,> 2000 nM
same,IC50,LB373-MEL-D,> 2000 nM
same,IC50,NCI-H1522,> 2000 nM
same,IC50,NCI-H1417,> 2000 nM
same,IC50,LOUCY,> 2000 nM
same,IC50,LC4-1,> 2000 nM
same,IC50,DMS-79,> 2000 nM
Nc1ccccc1NC(=O)c1ccc(CNC(=O)OCc2cccnc2)cc1 [ENTINOSTAT],IC50,TE-15,> 5000 nM
same,IC50,ST486,879 nM
same,IC50,DG-75,2270 nM
same,IC50,MC-CAR,> 5000 nM
same,IC50,BL-41,569 nM
same,IC50,NCI-H2141,3170 nM
same,IC50,TUR,> 5000 nM
same,IC50,PF-382,1120 nM
same,IC50,BL-70,857 nM
same,IC50,EB2,> 5000 nM
same,IC50,LB373-MEL-D,2270 nM
same,IC50,NCI-H1522,2220 nM
same,IC50,NCI-H1417,130 nM
same,IC50,LOUCY,634 nM
same,IC50,LC4-1,840 nM
same,IC50,DMS-79,2540 nM
Cc1ccc(NC(=O)c2ccc(CN3CCN(C)CC3)cc2)cc1Nc1nccc(-c2cccnc2)n1 [IMATINIB],IC50,TE-15,> 2000 nM
same,IC50,ST486,685 nM
same,IC50,DG-75,> 2000 nM
same,IC50,MC-CAR,> 2000 nM
same,IC50,BL-41,> 2000 nM
same,IC50,NCI-H2141,> 2000 nM
same,IC50,TUR,> 2000 nM
same,IC50,PF-382,> 2000 nM
same,IC50,BL-70,> 2000 nM
same,IC50,EB2,> 2000 nM
same,IC50,LB373-MEL-D,> 2000 nM
same,IC50,NCI-H1522,> 2000 nM
same,IC50,NCI-H1417,> 2000 nM
same,IC50,LOUCY,> 2000 nM
same,IC50,LC4-1,> 2000 nM
same,IC50,DMS-79,> 2000 nM
CS(=O)(=O)N1CCN(Cc2cc3nc(-c4cccc5[nH]ncc45)nc(N4CCOCC4)c3s2)CC1 [PICTILISIB],IC50,H4,851 nM
same,IC50,NCI-H2347,> 4000 nM
same,IC50,CAL-72,> 4000 nM
same,IC50,SNU-423,2400 nM
same,IC50,769-P,3830 nM
same,IC50,COR-L23,3370 nM
same,IC50,A2780,> 4000 nM
same,IC50,TCC-SUP,> 4000 nM
same,IC50,CAL-39,2030 nM
same,IC50,SW948,> 4000 nM
same,IC50,CAL-54,1070 nM
same,IC50,HT55,> 4000 nM
same,IC50,HCT-116,> 4000 nM
same,IC50,OAW-28,> 4000 nM
same,IC50,VMRC-RCZ,> 4000 nM
same,IC50,CaR-1,> 4000 nM
same,IC50,UMUC3,> 4000 nM
same,IC50,RPMI-2650,3610 nM
same,IC50,NCI-H2228,1850 nM
same,IC50,MCF7,899 nM
same,IC50,NCI-H358,> 4000 nM
same,IC50,SW1463,> 4000 nM
same,IC50,CWR22R,2460 nM
same,IC50,LU-99A,> 4000 nM
same,IC50,SW13,> 4000 nM
same,IC50,Ca-Ski,> 4000 nM
same,IC50,LCLC-97TM1,2690 nM
same,IC50,SKG-IIIa,2660 nM
same,IC50,NCI-H441,> 4000 nM
same,IC50,OVCAR-3,> 4000 nM
same,IC50,DBTRG-05MG,> 4000 nM
same,IC50,Hs-578T,1200 nM
same,IC50,HT-1080,3090 nM
same,IC50,MIA PaCa-2,> 4000 nM
same,IC50,SW837,> 4000 nM
same,IC50,SK-MES-1,2010 nM
same,IC50,NCI-H292,974 nM
same,IC50,A2058,> 4000 nM
same,IC50,HT-3,2490 nM
same,IC50,CAL-12T,> 4000 nM
same,IC50,SW780,> 4000 nM
same,IC50,RT-112,> 4000 nM
COc1cc(N2CCC(N3CCN(C)CC3)CC2)ccc1Nc1ncc(Cl)c(Nc2ccccc2S(=O)(=O)C(C)C)n1 [TAE-684],IC50,TE-15,511 nM
same,IC50,ST486,> 2000 nM
same,IC50,DG-75,> 2000 nM
same,IC50,MC-CAR,> 2000 nM
same,IC50,BL-41,1760 nM
same,IC50,NCI-H2141,> 2000 nM
same,IC50,TUR,> 2000 nM
same,IC50,PF-382,1570 nM
same,IC50,BL-70,995 nM
same,IC50,EB2,> 2000 nM
same,IC50,LB373-MEL-D,> 2000 nM
same,IC50,NCI-H1522,> 2000 nM
same,IC50,NCI-H1417,> 2000 nM
same,IC50,LOUCY,> 2000 nM
same,IC50,LC4-1,> 2000 nM
same,IC50,DMS-79,> 2000 nM
